The target of one assay is Cathepsin S (Homo sapiens, UniProt P25774). In words: Cathepsin S inhibition assay (fluorogenic peptide substrate). In kind it is biochemical. The conditions noted are these: Table II, compounds of Formula I; read-out: Ki Cat. S. The method in brief: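 Ki values come from nonlinear fitting of inhibited hydrolysis rates, taking free and total inhibitor concentrations as equal. Rates measured as rising fluorescence at 380/450 nm after reaction start with 50 μM final acetyl-HPVK-aminocarbamoylcoumarin.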

Another assay concerns the target T1, Cathepsin K (Homo sapiens, UniProt P43235).
T1 sequence (P43235 115-329): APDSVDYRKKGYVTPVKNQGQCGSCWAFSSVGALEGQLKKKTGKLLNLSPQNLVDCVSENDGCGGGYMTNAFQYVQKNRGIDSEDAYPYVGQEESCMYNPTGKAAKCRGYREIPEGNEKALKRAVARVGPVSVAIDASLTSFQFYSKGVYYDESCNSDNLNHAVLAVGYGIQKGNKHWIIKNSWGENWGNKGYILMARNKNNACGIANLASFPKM
Nature of the assay: Cathepsin K inhibition assay (fluorogenic peptide substrate); selectivity ratio vs cathepsin S. In kind it is biochemical. The conditions noted are these: ratio of cathepsin K inhibition constant to cathepsin S inhibition constant; Table II. The method in brief: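 Inhibition constants for competitive inhibitors come from apparent values fitted to enzyme progress curves. Substrate, acetyl-Lys-His-Pro-Lys-aminocarbamoylcoumarin (40 μM final), starts the reaction; fluorescence rise read at 380 nm excitation, 450 nm emission. Selectivity ratio: other cathepsin constant over cathepsin S constant.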

Molecules are shown by their SMILES. pKi: −log10 of the molar value.

Sequence of Cathepsin S (P25774 115-331, species assumed): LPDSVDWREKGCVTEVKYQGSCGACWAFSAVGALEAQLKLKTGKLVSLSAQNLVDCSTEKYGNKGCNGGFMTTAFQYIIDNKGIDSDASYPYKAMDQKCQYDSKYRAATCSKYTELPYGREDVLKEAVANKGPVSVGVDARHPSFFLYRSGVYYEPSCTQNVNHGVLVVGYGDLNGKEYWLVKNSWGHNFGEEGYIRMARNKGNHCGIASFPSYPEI

As for `O=C(NCCNc1ccc(OC(F)(F)F)cc1)[C@H](CC1CCCCC1)NC(=O)[C@@H](O)c1ccccc1` [Compound 58, 3-Cyclohexyl-2-(S)-(2-(S)-hydroxy-2-phenyl-acetylamino)-N-[2-(4-trifluoromethoxy-phenylamino)-ethyl]-propionamide], the pKi on Cathepsin S was more than 7.00. On Cathepsin K, the “Selectivity for Cat. S over Cat. K” value is reported as “++ (++, >100)”.

For the molecule `O=C(Cc1nnn[nH]1)N[C@@H](CC1CCCCC1)C(=O)NCCNc1ccc(F)cc1` [Compound 297, 3-Cyclohexyl-N-[2-(4-fluoro-phenylamino)-ethyl]-2-(S)-(2-1H-tetrazol-5-yl-acetylamino)-propionamide], the pKi at Cathepsin S was more than 6.00. Besides, the “Selectivity for Cat. S over Cat. K” value at Cathepsin K is listed as “++ (++, >100)”.

As for `O=C(N[C@@H](CC1CCCCC1)C(=O)NCCNc1ccc(F)cc1)C(F)c1ccccc1` (mixture of isomers) [Compound 86, 3-Cyclohexyl-2-(S)-(2-(R,S)-fluoro-2-phenyl-acetylamino)-N-[2-(4-fluoro-phenylamino)-ethyl]-propionamide], at Cathepsin S, the pKi was more than 7.00. Moreover, at Cathepsin K, the “Selectivity for Cat. S over Cat. K” value was “++ (++, >100)”.

On to `COc1ccc(NCCNC(=O)[C@H](Cc2ccc(Oc3ccc(Cl)c(Cl)c3)cc2)NC(=O)c2cccc(C)c2)cc1` [Compound 98, (S)-N-{2-[4-(3,4-Dichloro-phenoxy)-phenyl]-1-[2-(4-methoxy-phenylamino)-ethylcarbamoyl]-ethyl}-3-methyl-benzamide], for which the negative logarithm of the Ki (pKi) at Cathepsin S was more than 6.00. In addition, at Cathepsin K, the “Selectivity for Cat. S over Cat. K” value was “++ (++, >100)”.

In the case of `O=C(Cn1cnnn1)N[C@@H](CC1CCCCC1)C(=O)NCCNc1ccc(F)cc1` [Compound 265, 3-Cyclohexyl-N-[2-(4-fluoro-phenylamino)-ethyl]-2-(S)-(2-tetrazol-1-yl-acetylamino)-propionamide], the pKi on Cathepsin S was more than 6.00. The “Selectivity for Cat. S over Cat. K” value on Cathepsin K is on record as “++ (++, >100)”.

With `COc1ccc(NCCNC(=O)[C@H](CC2CCCCC2)NC(=O)c2cccc(Cl)c2)cc1` [Compound 118, (S)-3-Chloro-N-{2-cyclohexyl-1-[2-(4-methoxy-phenylamino)-ethylcarbamoyl]-ethyl}-benzamide], the pKi on Cathepsin S was more than 7.00. In addition, the “Selectivity for Cat. S over Cat. K” value on Cathepsin K is on record as “++ (++, >100)”.

In the case of `COc1ccc(NCCNC(=O)[C@H](CCC2CCCCC2)NC(=O)c2cccc(OC(F)(F)F)c2)cc1` [Compound 138, (S)-N-{3-Cyclohexyl-1-[2-(4-methoxy-phenylamino)-ethylcarbamoyl]-propyl}-3-trifluoromethoxy-benzamide], the pKi on Cathepsin S was more than 7.00. In addition, the “Selectivity for Cat. S over Cat. K” value on Cathepsin K is recorded as “+++ (+++, >1000)”.

`COc1ccc(NCCNC(=O)[C@H](Cc2ccccc2)NC(=O)CC2C=CCC2)cc1` (stereo partly drawn) [Compound 82, (S)-2-(2-Cyclopent-2-enyl-acetylamino)-N-[2-(4-methoxy-phenylamino)-ethyl]-3-phenyl-propionamide]: at Cathepsin S, the pKi is more than 6.00. The “Selectivity for Cat. S over Cat. K” value on Cathepsin K is reported as “+ (+, >10)”.

As to `COc1ccc(NCCNC(=O)[C@H](Cc2ccc(Oc3ccc(C)cc3)cc2)NC(=O)c2cccc(C)c2)cc1` [Compound 45, (S)-N-[1-[2-(4-Methoxy-phenylamino)-ethylcarbamoyl]-2-(4-p-tolyloxy-phenyl)-ethyl]-3-methyl-benzamide], the pKi at Cathepsin S was more than 7.00. Also, the “Selectivity for Cat. S over Cat. K” value at Cathepsin K is recorded as “+++ (+++, >1000)”.

With `COc1ccc(NCCNC(=O)[C@H](CC2CCOCC2)NC(=O)c2ccc(-c3cccc(C(F)(F)F)c3)o2)cc1` [Compound 5, N-((S)-1-(2-(4-methoxyphenylamino)ethylcarbamoyl)-2-(tetrahydro-2H-pyran-4-yl)ethyl)-5-(3-(trifluoromethyl)phenyl)furan-2-carboxamide], on Cathepsin S, the pKi is more than 6.00. For the same molecule, the “Selectivity for Cat. S over Cat. K” value on Cathepsin K is listed as “+ (+, >10)”.

Regarding `COc1ccc(NCCNC(=O)[C@H](Cc2ccc(I)cc2)NC(=O)c2cccc(C)c2)cc1` [Compound 242, (S)-N-{2-(4-Iodo-phenyl)-1-[2-(4-methoxy-phenylamino)-ethylcarbamoyl]-ethyl}-3-methyl-benzamide], at Cathepsin S, the pKi was more than 7.00. Moreover, on Cathepsin K, the “Selectivity for Cat. S over Cat. K” value is recorded as “+++ (+++, >1000)”.

Turning to `Cc1cccc(-c2ccc(C(=O)N[C@@H](CC3CCCCC3)C(=O)NCCNc3ccc(OC(F)(F)F)cc3)o2)c1` [Compound 51, 5-m-Tolyl-furan-2-carboxylic acid (S)-{2-cyclohexyl-1-[2-(4-trifluoromethoxy-phenylamino)-ethylcarbamoyl]-ethyl}-amide], the pKi on Cathepsin S was more than 7.00. Further, the “Selectivity for Cat. S over Cat. K” value at Cathepsin K is “+++ (+++, >1000)”.

On to `COc1ccc(NCCNC(=O)[C@H](CC2CCCCC2)NC(=O)c2cnn(-c3ccc(Cl)cc3)c2C)cc1` [Compound 163, (S)-1-(4-Chloro-phenyl)-5-methyl-1H-pyrazole-4-carboxylic acid {2-cyclohexyl-1-[2-(4-methoxy-phenylamino)-ethylcarbamoyl]-ethyl}-amide], for which the pKi at Cathepsin S was more than 7.00. Further, the “Selectivity for Cat. S over Cat. K” value on Cathepsin K is given as “+ (+, >10)”.

Take `COc1ccc(NCCNC(=O)C(NC(=O)c2cccc(C)c2)c2ccccc2C)cc1` (stereo not drawn) [Compound 220, N-{[2-(4-Methoxy-phenylamino)-ethylcarbamoyl]-o-tolyl-methyl}-3-methyl-benzamide]: the pKi at Cathepsin S is more than 6.00. Moreover, the “Selectivity for Cat. S over Cat. K” value on Cathepsin K is recorded as “++ (++, >100)”.

Take `COc1ccc(NCCNC(=O)C(NC(=O)c2ccc(-c3cccc(C(F)(F)F)c3)o2)c2ccccc2)cc1` (racemic) [Compound 9, (±)-N-((2-(4-methoxyphenylamino)ethylcarbamoyl)(phenyl)-methyl)-5-(3-(trifluoromethyl)phenyl)furan-2-carboxamide]: the pKi at Cathepsin S is more than 6.00. The “Selectivity for Cat. S over Cat. K” value on Cathepsin K is listed as “+ (+, >10)”.

For the molecule `CC(C(=O)NC(CC1CCCCC1)C(=O)NCCNc1ccc(F)cc1)c1ccc(-c2ccccc2)c(F)c1` [Compound 308, N-(S)-{2-cyclohexyl-1-[2-(4-fluoro-phenylamino)-ethylcarbamoyl]-ethyl}-2-(2-fluoro-biphenyl-4-yl)-propionamide], the pKi on Cathepsin S is more than 7.00. The “Selectivity for Cat. S over Cat. K” value on Cathepsin K is reported as “++ (++, >100)”.

Turning to `O=C(N[C@@H](CC1CCCCC1)C(=O)NCCNc1ccc(OC(F)(F)F)cc1)C1CCN(c2ncc(Br)cn2)CC1` [Compound 81, 1-(5-Bromo-pyrimidin-2-yl)-piperidine-4-carboxylic acid (S)-{2-cyclohexyl-1-[2-(4-trifluoromethoxy-phenylamino)-ethylcarbamoyl]-ethyl}-amide], the pKi at Cathepsin S was more than 6.00. For the same molecule, the “Selectivity for Cat. S over Cat. K” value at Cathepsin K is “++ (++, >100)”.

Take `COc1ccc(NCCNC(=O)[C@H](CC2CCCCC2)NC(=O)c2cc(-c3ccc(Cl)cc3)cs2)cc1` [Compound 189, (S)-4-(4-Chloro-phenyl)-thiophene-2-carboxylic acid {2-cyclohexyl-1-[2-(4-methoxy-phenylamino)-ethylcarbamoyl]-ethyl}-amide]: on Cathepsin S, the negative logarithm of the Ki (pKi) was more than 7.00. For the same molecule, at Cathepsin K, the “Selectivity for Cat. S over Cat. K” value is reported as “++ (++, >100)”.

Regarding `COc1ccc(NCCNC(=O)[C@H](Cc2ccc(Oc3ccccc3C)cc2)NC(=O)c2cccc(C)c2)cc1` [Compound 66, (S)-N-[1-[2-(4-Methoxy-phenylamino)-ethylcarbamoyl]-2-(4-o-tolyloxy-phenyl)-ethyl]-3-methyl-benzamide], the pKi at Cathepsin S was more than 6.00. Moreover, the “Selectivity for Cat. S over Cat. K” value on Cathepsin K is “++ (++, >100)”.

Turning to `Cc1cc2ncc(C(=O)N[C@@H](CC3CCCCC3)C(=O)NCCNc3ccc(OC(F)(F)F)cc3)c(C)n2n1` [Compound 48, 2,7-Dimethyl-pyrazolo[1,5-a]pyrimidine-6-carboxylic acid (S)-{2-cyclohexyl-1-[2-(4-trifluoromethoxy-phenylamino)-ethylcarbamoyl]-ethyl}-amide], the pKi on Cathepsin S was more than 6.00. In addition, on Cathepsin K, the “Selectivity for Cat. S over Cat. K” value was “++ (++, >100)”.

In the case of `O=C(Cc1ccsc1)N[C@@H](CC1CCCCC1)C(=O)NCCNc1ccc(F)cc1` [Compound 77, 3-Cyclohexyl-N-[2-(4-fluoro-phenylamino)-ethyl]-2-(S)-(2-thiophen-3-yl-acetylamino)-propionamide], the pKi on Cathepsin S was more than 7.00. Moreover, on Cathepsin K, the “Selectivity for Cat. S over Cat. K” value is “++ (++, >100)”.

Consider `COc1ccc(NCCNC(=O)[C@H](Cc2ccccc2)NC(=O)c2cnn(-c3ccc(Cl)cc3)c2C(F)(F)F)cc1` [Compound 44, (S)-1-(4-Chloro-phenyl)-5-trifluoromethyl-1H-pyrazole-4-carboxylic acid {1-[2-(4-methoxy-phenylamino)-ethylcarbamoyl]-2-phenyl-ethyl}-amide], for which the pKi at Cathepsin S was more than 6.00. The “Selectivity for Cat. S over Cat. K” value on Cathepsin K is “++ (++, >100)”.

For `O=C(N[C@@H](CC1CCCCC1)C(=O)NCCNc1ccc(OC(F)(F)F)cc1)c1ccc(-c2cc(C(F)(F)F)ccc2Cl)o1` [Compound 251, (S)-5-(2-Chloro-5-trifluoromethyl-phenyl)-furan-2-carboxylic acid {2-cyclohexyl-1-[2-(4-trifluoromethoxy-phenylamino)-ethylcarbamoyl]-ethyl}-amide], the pKi at Cathepsin S was more than 7.00. For the same molecule, at Cathepsin K, the “Selectivity for Cat. S over Cat. K” value is “+++ (+++, >1000)”.

On to `CC(C(=O)N[C@@H](CC1CCCCC1)C(=O)NCCNc1ccc(F)cc1)c1ccc(Cl)cc1` (stereo partly drawn) [Compound 312, 2-(4-Chloro-phenyl)-N-{2-cyclohexyl-1-(S)-[2-(4-fluoro-phenylamino)-ethylcarbamoyl]-ethyl}-propionamide], for which the pKi at Cathepsin S was more than 7.00. Also, the “Selectivity for Cat. S over Cat. K” value at Cathepsin K is reported as “++ (++, >100)”.

Source of the values: patent US7109243B2 (IRM LLC, priority 2003, dated 2006).
